Experimental findings from ChEMBL document CHEMBL4342498, “Design and Discovery of an Orally Efficacious Spiroindolinone-Based Tankyrase Inhibitor for the Treatment of Colon Cancer” (J Med Chem, 2020) are described below.

Structures are written as SMILES.

The nature of data set [1]: AUC (infinity) in ICR mouse at 50 mg/kg, ip. Conditions: in vivo. In kind it is ADME, organism-based. Also noted: dose 50 mg/kg, route intraperitoneal, time infinity.
Data set [2] in a line: Cmax in ICR mouse at 50 mg/kg, ip. In kind it is ADME, organism-based. More on the design: dose 50 mg/kg, route intraperitoneal. Conditions: in vivo.
Data set [3] is described as follows: Half life in ICR mouse at 50 mg/kg, ip. Conditions: in vivo. In kind it is ADME, organism-based.
The nature of data set [4]: Stability in mouse liver microsomes assessed as parent compound remaining at 1 uM measured after 60 mins in presence of NADPH by LC-MS/MS analysis. In kind it is ADME, Microsome. Conditions: read-out: Stability.
A further data set has as its system MDR1. Put plainly: Efflux ratio of permeability across basolateral to apical side over apical to basolateral side in MDCK2-MDR1 cells. Conditions: dog, MDCK-MDR1. In kind it is ADME, cell-based, Canis lupus familiaris.
In data set [5] the target is T1, Poly [ADP-ribose] polymerase tankyrase-2 (Homo sapiens, UniProt Q9H2K2).
T1 sequence (Q9H2K2 whole entry): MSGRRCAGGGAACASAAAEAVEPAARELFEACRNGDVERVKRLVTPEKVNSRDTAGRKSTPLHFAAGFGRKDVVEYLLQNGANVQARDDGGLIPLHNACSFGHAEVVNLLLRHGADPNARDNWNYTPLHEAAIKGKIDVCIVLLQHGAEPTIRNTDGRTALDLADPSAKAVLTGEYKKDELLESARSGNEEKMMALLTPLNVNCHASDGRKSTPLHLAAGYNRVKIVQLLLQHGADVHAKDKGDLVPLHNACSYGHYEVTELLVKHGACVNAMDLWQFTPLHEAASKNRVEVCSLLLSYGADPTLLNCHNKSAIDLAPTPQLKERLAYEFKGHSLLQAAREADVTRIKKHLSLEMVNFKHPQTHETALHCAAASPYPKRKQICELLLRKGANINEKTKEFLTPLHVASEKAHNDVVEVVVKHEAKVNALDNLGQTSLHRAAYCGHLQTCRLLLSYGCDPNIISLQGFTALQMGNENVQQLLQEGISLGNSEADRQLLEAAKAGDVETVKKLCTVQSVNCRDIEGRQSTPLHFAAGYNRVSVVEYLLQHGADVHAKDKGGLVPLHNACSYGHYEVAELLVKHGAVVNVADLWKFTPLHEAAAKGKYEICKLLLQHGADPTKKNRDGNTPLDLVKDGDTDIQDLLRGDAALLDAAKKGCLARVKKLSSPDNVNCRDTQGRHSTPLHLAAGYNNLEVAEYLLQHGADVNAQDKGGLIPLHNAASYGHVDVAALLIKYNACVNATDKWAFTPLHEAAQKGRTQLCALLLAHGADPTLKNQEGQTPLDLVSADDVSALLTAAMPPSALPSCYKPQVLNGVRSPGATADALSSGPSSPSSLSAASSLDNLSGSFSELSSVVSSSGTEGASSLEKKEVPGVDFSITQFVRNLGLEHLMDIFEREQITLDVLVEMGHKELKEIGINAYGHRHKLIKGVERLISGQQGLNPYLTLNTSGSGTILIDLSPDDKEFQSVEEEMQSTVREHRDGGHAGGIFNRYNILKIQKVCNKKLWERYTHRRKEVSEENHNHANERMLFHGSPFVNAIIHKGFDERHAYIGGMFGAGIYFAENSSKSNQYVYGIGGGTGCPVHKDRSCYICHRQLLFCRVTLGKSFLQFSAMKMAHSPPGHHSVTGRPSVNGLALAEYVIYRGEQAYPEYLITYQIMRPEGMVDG
The data set is described as follows: Inhibition of recombinant human N-terminal TEV cleavage site-fused/FLAG-poly his-tagged TNKS2 ARC5-SAM-PARP domain (613 to 1166 residues) expressed in Escherichia coli assessed as reduction in auto-PARylation preincubated for 10 mins followed by biotinylated-NAD+ addition and measured after 45 mins by ELISA.

The target of data set [6] is T2, Tankyrase 1/2 (Homo sapiens, UniProt Q9H2K2+O95271).
T2 sequence (Q9H2K2 whole entry): T1 sequence (Q9H2K2 whole entry)
T2 sequence (O95271 whole entry): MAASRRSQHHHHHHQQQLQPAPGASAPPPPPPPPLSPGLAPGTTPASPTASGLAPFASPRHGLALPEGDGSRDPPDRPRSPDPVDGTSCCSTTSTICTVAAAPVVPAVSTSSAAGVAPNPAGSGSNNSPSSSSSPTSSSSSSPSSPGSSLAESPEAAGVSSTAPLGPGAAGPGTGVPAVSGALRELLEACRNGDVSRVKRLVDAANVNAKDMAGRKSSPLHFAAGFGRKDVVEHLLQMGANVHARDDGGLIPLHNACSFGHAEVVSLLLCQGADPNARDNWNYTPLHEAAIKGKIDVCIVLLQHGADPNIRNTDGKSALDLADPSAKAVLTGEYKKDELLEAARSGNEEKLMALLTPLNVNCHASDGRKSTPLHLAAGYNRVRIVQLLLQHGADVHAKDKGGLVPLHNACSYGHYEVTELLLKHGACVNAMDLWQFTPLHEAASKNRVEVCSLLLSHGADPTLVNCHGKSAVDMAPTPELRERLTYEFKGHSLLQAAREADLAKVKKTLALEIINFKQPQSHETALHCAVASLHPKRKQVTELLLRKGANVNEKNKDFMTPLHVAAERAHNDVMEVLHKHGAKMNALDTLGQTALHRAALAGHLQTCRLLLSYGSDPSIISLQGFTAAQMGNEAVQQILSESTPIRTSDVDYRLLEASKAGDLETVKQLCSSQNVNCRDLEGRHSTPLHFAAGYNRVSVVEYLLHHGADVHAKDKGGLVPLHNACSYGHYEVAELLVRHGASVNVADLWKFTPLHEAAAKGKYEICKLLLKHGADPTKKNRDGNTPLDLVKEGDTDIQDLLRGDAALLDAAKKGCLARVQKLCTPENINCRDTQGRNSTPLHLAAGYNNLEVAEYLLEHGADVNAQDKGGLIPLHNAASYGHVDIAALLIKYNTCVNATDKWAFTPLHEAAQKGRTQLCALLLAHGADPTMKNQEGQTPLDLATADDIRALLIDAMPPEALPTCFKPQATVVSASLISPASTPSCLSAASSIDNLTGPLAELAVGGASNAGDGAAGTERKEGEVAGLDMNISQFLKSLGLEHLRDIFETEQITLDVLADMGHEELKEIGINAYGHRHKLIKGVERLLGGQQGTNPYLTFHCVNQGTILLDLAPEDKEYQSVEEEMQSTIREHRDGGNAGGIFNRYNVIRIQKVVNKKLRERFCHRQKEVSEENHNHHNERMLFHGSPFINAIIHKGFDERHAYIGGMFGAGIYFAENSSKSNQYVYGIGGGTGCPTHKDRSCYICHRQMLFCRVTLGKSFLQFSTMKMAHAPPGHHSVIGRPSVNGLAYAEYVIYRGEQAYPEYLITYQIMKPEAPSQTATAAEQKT
Conditions: hek293.
Description: Inhibition of TNKS/TNKS2 (unknown origin) expressed in HEK293 cells assessed as reduction in Wnt-signaling measured after 24 hrs by TCF-luciferase reporter gene assay

In data set [7] the target is T2, Tankyrase 1/2.
Description: Inhibition of TNKS/TNKS2 (unknown origin) expressed in human DLD1 cells assessed as reduction in Wnt-signaling measured after 24 hrs by TCF-luciferase reporter gene assay
Data set [8] can be described thus: Protein binding in human plasma assessed as unbound fraction at 1 uM measured after 24 hrs by LC-MS/MS analysis. In kind it is ADME, cell-free.
Data set [9] is described as follows: Efflux ratio of permeability across basolateral to apical side over apical to basolateral side in MDCK2 cells. In kind it is ADME, cell-based, Canis lupus familiaris, MDCK-II. Conditions: dog, mdck.
Data set [10] in a line: Stability in rat liver microsomes assessed as parent compound remaining at 1 uM measured after 30 mins in presence of NADPH by LC-MS/MS analysis. In kind it is ADME, Microsome. Conditions: read-out: Stability.

Regarding `CN1CCN(c2cc(F)c3c(c2)N(C)C(=O)C32CCN(c3nc4c(c(=O)[nH]3)CCCN4C)CC2)CC1`, the AUC(0-inf) in data set [1] is 207 µM·h. Moreover, the Cmax in data set [2] is 53.6 µM. This compound also showed a half-life in [3] of 2.5 h. For the same compound, the remaining at 1 h, 1 µM in data set [4] was 30.5 to 54.5%. Also, the values for the efflux ratio (with MDR1; in data set [9]) were 13.2 and 3.1, respectively. The IC50 in data set [5] came out at 0.0123 µM; at Tankyrase 1/2 [6] it was 0.0009 µM; against Tankyrase 1/2 [7], 0.0084 µM. Also, in data set [8], the fraction unbound at 24 h, 1 µM stood at 0.004. Further, the remaining at 0.5 h, 1 µM in [10] turned out to be 80.2%.
In [1], `C[C@@H]1CN(c2cc(F)c3c(c2)N(C)C(=O)C32CCN(c3nc4c(c(=O)[nH]3)CCCN4C)CC2)C[C@H](C)O1` showed an AUC(0-inf) of 607 µM·h. In addition, in [2], the concentration peaked (Cmax) at 102 µM. The half-life in data set [3] is 1.9 h. Further, in [4], the remaining at 1 h, 1 µM lay within 28.7 to 55.9%. Further, the efflux ratio in the data set with MDR1 is 1; in [9], 0.9. For the same compound, the IC50 in data set [5] stood at 0.0392 µM; at Tankyrase 1/2 [6] it was 0.0003 µM; on Tankyrase 1/2 [7], 0.0031 µM. Besides, the fraction unbound at 24 h, 1 µM in data set [8] was 0.003. Further, the remaining at 0.5 h, 1 µM in [10] stood at 57.3%.
